We go through four compounds from ChEMBL document CHEMBL1201862, “PubChem BioAssay data set” (2004).

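Assay format: 96-well plates, 48-hour exposure. GI50 marks 50% less growth.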 Activity calls are given as the source filed them. No stated cut-off is given here; in the data, active = GI50 up to about 1.1 µM and inactive = higher.

Some test systems named below: Malme-3M; HCC 2998; MCF7; SK-MEL-5; LOX IMVI; HCT-15; OVCAR-4; SN12C; KM12; SF-268; NCI-H460; SK-MEL-2; U-251; CAKI-1; MOLT-4; T47D; K562; M14; A498; SW-620.
What all share (assay): NCI tumour cell line growth inhibition, 48 h

With `CCN(CC)c1ccc(/C=C2/C[N+](C)(C)C/C(=C/c3ccc(N(CC)CC)cc3)C2=O)cc1`, the GI50 with Malme-3M was 1.95 µM (inactive); in the assay on HCC 2998 it was 2.42 µM (inactive); in the assay on MCF7, 1.96 µM (inactive); in the assay with SK-MEL-5, 1.67 µM (inactive); with LOX IMVI, 1.69 µM (inactive); in the assay with HCT-15 it was more than 100 µM. For the same compound, the GI50 in the assay on OVCAR-4 was 3.01 µM (inactive); in the assay on SN12C, 3.17 µM (inactive); with KM12, 1.23 µM (inactive); in the assay on SF-268, 2.58 µM (inactive); in the assay on NCI-H460, 2.92 µM (inactive); in the assay on SK-MEL-2 it was 1.87 µM (inactive). Also, the GI50 in the assay with U-251 was 2.37 µM (inactive); with CAKI-1, > 48 µM (inactive); in the assay on MOLT-4 it was 1.51 µM (inactive); in the assay with T47D, 2.4 µM (inactive); with K562, 1.01 µM (active); in the assay on M14 it was 2.4 µM (inactive). In addition, the GI50 is 12.4 µM (inactive) in the assay with A498 and 2.67 µM (inactive) in the assay with SW-620.

Take `C=CC(=O)C#CC#CC/C=C\CCCCCCC`: the GI50 is > 20.6 µM (inactive) with Malme-3M; > 20.6 µM (inactive) in the assay with HCC 2998; > 20.6 µM (inactive) in the assay with MCF7; > 20.6 µM (inactive) in the assay on SK-MEL-5; 7.76 µM (inactive) with LOX IMVI; more than 20.6 µM in the assay on HCT-15. For the same compound, the GI50 in the assay with OVCAR-4, in the assay with SN12C, in the assay with KM12, in the assay with SF-268, in the assay with NCI-H460 and in the assay on SK-MEL-2 was > 20.6 µM (inactive) in each case. For the same compound, the GI50 is > 20.6 µM (inactive) in the assay on U-251; > 20.6 µM (inactive) in the assay on CAKI-1; 4.53 µM (inactive) in the assay with MOLT-4; > 20.6 µM (inactive) with T47D; 6.82 µM (inactive) with K562; > 14.6 µM (inactive) with M14. For the same compound, the GI50 with A498 and in the assay on SW-620 was > 20.6 µM (inactive) throughout.

With `CN(C)c1ccc(C2CC(=O)CC(c3ccc(N(C)C)cc3)C23C(=O)NC(=S)NC3=O)cc1` (stereo not given), the GI50 in the assay with Malme-3M is > 100 µM (inactive); with HCC 2998 it was 99.3 µM (inactive); in the assay on MCF7, 86.1 µM (inactive); with SK-MEL-5, > 100 µM (inactive); in the assay with LOX IMVI it was > 100 µM (inactive); in the assay with HCT-15 it was more than 100 µM. The GI50 in the assay with OVCAR-4 was > 100 µM (inactive); in the assay on SN12C, > 100 µM (inactive); with KM12, > 100 µM (inactive); with SF-268, 33.2 µM (inactive); in the assay with NCI-H460, > 100 µM (inactive); in the assay on SK-MEL-2, 38.8 µM (inactive). The GI50 with U-251 was 30.6 µM (inactive); in the assay with CAKI-1, > 100 µM (inactive); with MOLT-4, > 100 µM (inactive); with T47D, > 100 µM (inactive); in the assay on K562, > 100 µM (inactive); in the assay with M14, > 100 µM (inactive). Also, the GI50 in the assay on A498 and in the assay on SW-620 was > 100 µM (inactive) each time.

As for `COc1cc2c(cc1O)CC1c3c(cc(O)c(OC)c3-2)CCN1C` (stereo not given), the GI50 with Malme-3M was > 100 µM (inactive); in the assay with HCC 2998, > 100 µM (inactive); with MCF7, > 100 µM (inactive); with SK-MEL-5, > 89.7 µM (inactive); in the assay on LOX IMVI, > 100 µM (inactive); in the assay on HCT-15, more than 100 µM. In addition, the GI50 in the assay with OVCAR-4, in the assay with SN12C, in the assay on KM12, in the assay on SF-268, in the assay on NCI-H460 and with SK-MEL-2 was > 100 µM (inactive) in each case. In addition, the GI50 in the assay on U-251 was > 86.1 µM (inactive); in the assay with CAKI-1, > 100 µM (inactive); in the assay with MOLT-4 it was > 58.3 µM (inactive); in the assay on T47D it was > 100 µM (inactive); in the assay on K562, > 100 µM (inactive); with M14, > 100 µM (inactive). For the same compound, the GI50 in the assay on A498 and with SW-620 was > 100 µM (inactive) in each case.
